The record followed here is ChEMBL document CHEMBL1201862, “PubChem BioAssay data set” (2004).

Calls of active or inactive are those of the source.

Broadly, the AC50 is the midpoint of the concentration-response curve, whichever way the signal moves.

For assay [1], the system named is HEK293. The assay is described as follows: NOD1 signaling inhibitors, primary screen, cell-based, luminescence, uHTS (AID 1578). The settings on record: Homo sapiens. It counts as functional.
Assay [2] has as its system HEK293. The assay is described as follows: cells. It is filed as functional, cell-based. The settings on record: Homo sapiens.
For a further assay, the target named is T1, Cysteine protease ATG4B (Homo sapiens, UniProt Q9Y4P1).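 Further: Fluorescence-based dose-response confirmation assay measuring inhibition of ATG4B activity.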
T1 sequence (Q9Y4P1 whole entry): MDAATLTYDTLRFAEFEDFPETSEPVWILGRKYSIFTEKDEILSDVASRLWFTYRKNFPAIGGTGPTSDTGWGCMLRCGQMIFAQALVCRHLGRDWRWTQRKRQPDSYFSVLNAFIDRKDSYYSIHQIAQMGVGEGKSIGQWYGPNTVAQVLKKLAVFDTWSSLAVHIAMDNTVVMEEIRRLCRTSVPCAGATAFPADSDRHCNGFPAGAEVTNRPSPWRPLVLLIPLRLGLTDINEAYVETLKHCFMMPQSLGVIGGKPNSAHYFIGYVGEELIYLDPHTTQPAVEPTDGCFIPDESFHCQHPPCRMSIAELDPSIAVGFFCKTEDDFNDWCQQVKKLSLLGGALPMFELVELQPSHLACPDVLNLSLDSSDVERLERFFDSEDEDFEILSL
It is filed as functional.

For another assay, the target named is Genome polyprotein (dengue virus type 2, UniProt P29990). Briefly: Dengue-2 NS5 methyltransferase inhibitors, primary screen, biochemical, confirmation dose response (AID 588689). It counts as functional.
Chain of Genome polyprotein (P29990 2492-3391 limits assumed): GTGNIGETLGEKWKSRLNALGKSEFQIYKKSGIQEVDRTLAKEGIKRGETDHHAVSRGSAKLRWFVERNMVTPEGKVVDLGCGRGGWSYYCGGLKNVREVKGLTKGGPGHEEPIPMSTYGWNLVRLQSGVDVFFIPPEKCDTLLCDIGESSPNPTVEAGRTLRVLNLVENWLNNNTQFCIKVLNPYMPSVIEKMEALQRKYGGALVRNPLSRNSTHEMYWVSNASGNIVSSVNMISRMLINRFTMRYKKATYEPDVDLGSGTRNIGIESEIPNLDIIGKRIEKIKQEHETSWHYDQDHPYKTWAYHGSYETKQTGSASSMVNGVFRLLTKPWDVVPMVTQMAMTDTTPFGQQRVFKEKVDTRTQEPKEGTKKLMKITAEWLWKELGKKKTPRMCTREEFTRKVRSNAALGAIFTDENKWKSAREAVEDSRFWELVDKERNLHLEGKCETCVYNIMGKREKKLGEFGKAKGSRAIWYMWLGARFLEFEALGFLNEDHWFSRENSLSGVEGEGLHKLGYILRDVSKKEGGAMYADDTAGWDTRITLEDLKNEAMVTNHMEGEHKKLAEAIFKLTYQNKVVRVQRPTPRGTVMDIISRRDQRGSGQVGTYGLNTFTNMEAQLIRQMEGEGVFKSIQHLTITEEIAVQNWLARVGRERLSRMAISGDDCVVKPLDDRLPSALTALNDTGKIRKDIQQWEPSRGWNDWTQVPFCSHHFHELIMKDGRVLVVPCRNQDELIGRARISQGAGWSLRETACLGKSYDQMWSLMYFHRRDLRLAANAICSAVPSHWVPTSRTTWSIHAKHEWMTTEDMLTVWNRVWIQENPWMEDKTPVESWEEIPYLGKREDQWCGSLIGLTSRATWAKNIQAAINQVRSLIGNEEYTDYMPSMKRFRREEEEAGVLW
For assay [3], the system named is HEK293. The assay is described as follows: cells. It is filed as functional, cell-based. The settings on record: Homo sapiens. The source holds these as a separate data set.
For the next assay, the target named is Phospholipase A2 (Homo sapiens, UniProt P04054). It counts as functional.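 Further: confirmatory dose-response counterscreen on phospholipase A2, testing hits that came from an ultra-high-throughput screen for ATG4B inhibitors.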
Chain of Phospholipase A2 (P04054 whole entry): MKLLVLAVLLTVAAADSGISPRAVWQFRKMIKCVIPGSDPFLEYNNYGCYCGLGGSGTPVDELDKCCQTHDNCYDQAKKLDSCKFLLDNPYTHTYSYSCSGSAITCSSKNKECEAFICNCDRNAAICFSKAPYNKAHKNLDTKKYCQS
Assay [4] has as its target Induced myeloid leukemia cell differentiation protein Mcl-1 (Homo sapiens, UniProt Q07820). It counts as functional.
For assay [5], the system named is HEK293. Briefly: NOD2 signaling inhibitors in MDP-stimulated cells, cell-based, uHTS, luminescence (AID 2001). It counts as functional. Particulars: Homo sapiens.
Assay [6] has as its target T2, Corticotropin-releasing factor receptor 2/Corticotropin-releasing factor-binding protein (Homo sapiens, UniProt P24387+Q13324).
T2 sequence (Q13324 whole entry): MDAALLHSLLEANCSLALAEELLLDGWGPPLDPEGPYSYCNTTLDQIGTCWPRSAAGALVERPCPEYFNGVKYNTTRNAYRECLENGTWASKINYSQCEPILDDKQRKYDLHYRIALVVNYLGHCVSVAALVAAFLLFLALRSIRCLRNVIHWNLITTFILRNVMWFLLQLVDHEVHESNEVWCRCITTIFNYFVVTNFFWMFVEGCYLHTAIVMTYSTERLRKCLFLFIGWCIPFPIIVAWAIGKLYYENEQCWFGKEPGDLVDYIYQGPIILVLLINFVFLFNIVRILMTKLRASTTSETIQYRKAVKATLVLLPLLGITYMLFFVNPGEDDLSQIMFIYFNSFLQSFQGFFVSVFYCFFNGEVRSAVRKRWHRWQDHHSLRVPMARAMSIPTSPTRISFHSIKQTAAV
T2 sequence (P24387 whole entry): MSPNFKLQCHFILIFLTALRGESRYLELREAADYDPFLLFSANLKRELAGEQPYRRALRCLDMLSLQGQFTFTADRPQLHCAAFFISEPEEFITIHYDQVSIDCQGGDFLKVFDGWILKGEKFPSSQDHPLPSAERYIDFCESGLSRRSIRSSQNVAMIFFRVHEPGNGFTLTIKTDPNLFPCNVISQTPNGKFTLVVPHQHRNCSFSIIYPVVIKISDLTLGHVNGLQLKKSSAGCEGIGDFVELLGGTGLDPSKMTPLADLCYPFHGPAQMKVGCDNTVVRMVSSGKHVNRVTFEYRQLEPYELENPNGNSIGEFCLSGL
Briefly: Dose Response confirmation of uHTS hits for small molecule antagonists of the CRF-binding protein and CRF-R2 receptor complex. It is filed as functional. The settings on record: read-out: IC50_Mean.

Assay [7] deals with T2, Corticotropin-releasing factor receptor 2/Corticotropin-releasing factor-binding protein. Briefly: activators of CRF receptor 2 with binding protein – uHTS hits, confirmation (AID 602473). Particulars: read-out: EC50_Mean. It counts as functional.
Another assay addresses Cytochrome P450 3A4 (Homo sapiens, UniProt P08684).
The next assay has as its target Cytochrome P450 2D6 (Homo sapiens, UniProt P10635).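 Further: CYP2D6 member of a cytochrome P450 panel assay.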
The nature of assay [8]: CRF-BP/CRF-R2 complex antagonists, dose response, cell-based, uHTS hits, 384-well (AID 651639). It is filed as functional, Homo sapiens. The settings on record: read-out: IC50_Mean.
For the next assay, the target named is T3, Cytochrome P450 1A2 (Homo sapiens, UniProt P05177).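 Further: PubChem cytochrome P450 panel assay, CYP1A2 panel member.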
T3 sequence (P05177 whole entry): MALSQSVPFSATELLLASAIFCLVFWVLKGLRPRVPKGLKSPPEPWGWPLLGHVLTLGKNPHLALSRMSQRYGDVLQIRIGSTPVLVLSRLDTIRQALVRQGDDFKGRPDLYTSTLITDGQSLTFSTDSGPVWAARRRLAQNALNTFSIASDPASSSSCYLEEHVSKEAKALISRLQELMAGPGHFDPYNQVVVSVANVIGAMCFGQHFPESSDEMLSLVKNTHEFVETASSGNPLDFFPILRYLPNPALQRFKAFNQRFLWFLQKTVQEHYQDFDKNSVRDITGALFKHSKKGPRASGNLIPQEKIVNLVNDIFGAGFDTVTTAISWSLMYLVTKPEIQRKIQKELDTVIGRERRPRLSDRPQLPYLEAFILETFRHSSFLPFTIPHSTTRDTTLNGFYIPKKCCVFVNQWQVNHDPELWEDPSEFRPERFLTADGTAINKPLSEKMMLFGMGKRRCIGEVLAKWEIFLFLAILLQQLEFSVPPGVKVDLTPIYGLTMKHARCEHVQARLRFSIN

The target in the next assay is Cytochrome P450 2C9 (Homo sapiens, UniProt P11712).
Chain of Cytochrome P450 2C9 (P11712 whole entry): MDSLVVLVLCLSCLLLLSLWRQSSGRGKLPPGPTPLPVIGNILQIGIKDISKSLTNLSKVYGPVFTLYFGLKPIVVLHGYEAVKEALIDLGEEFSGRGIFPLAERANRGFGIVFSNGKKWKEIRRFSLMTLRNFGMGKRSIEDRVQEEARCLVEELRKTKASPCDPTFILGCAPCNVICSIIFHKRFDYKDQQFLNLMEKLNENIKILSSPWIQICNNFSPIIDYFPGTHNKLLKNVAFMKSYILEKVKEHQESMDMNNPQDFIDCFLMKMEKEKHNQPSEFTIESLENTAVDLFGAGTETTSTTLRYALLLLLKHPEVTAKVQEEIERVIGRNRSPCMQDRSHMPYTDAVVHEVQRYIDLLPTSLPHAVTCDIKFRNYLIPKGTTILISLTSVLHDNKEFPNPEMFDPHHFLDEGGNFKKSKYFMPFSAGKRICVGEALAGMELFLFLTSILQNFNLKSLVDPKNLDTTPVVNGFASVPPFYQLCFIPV
The nature of assay [9]: Luminescence Cell-Based Dose Confirmation HTS to Identify Inhibitors of Platelet Dense Granule Release. [Related pubchem assays: 1663 (Primary HTS), 1678 (Summary of Project)]. It is filed as functional.
The target in assay [10] is Luciferin 4-monooxygenase (Photinus pyralis, UniProt P08659). The assay is described as follows: firefly luciferase enzyme inhibitors, dose response, biochemical, luminescence (AID 1891).
Chain of Luciferin 4-monooxygenase (P08659 whole entry): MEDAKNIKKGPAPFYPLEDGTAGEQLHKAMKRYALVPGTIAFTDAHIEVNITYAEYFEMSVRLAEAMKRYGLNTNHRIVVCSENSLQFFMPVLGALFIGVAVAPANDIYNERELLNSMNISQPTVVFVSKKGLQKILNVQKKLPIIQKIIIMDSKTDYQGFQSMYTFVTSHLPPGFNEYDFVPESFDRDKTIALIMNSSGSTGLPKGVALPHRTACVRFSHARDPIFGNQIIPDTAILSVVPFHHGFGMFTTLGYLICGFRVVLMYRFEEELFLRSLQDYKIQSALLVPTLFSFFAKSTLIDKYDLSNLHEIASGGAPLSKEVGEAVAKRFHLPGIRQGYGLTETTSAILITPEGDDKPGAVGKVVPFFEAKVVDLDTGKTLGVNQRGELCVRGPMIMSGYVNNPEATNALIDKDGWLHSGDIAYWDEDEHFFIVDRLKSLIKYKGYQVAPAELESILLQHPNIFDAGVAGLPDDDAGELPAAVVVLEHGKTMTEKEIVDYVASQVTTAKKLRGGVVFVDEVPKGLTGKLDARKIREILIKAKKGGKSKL
The target of assay [11] is T4, Probable nicotinate-nucleotide adenylyltransferase (Staphylococcus aureus (strain N315), UniProt P65502). It is filed as functional, Staphylococcus aureus subsp. aureus N315. Particulars: read-out: IC50_Mean.
T4 sequence (P65502 whole entry): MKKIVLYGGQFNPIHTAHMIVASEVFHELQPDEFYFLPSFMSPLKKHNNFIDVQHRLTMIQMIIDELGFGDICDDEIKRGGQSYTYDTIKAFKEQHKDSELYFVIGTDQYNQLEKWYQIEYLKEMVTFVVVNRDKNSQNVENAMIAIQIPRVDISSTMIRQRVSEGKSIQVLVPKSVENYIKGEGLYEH
Assay [12] addresses T4, Probable nicotinate-nucleotide adenylyltransferase. It is filed as functional, Staphylococcus aureus subsp. aureus N315.
The target in assay [13] is 26S proteasome non-ATPase regulatory subunit 14 (Homo sapiens, UniProt O00487). Briefly: inhibition of proteasome subunit RPN11 – biochemical, fluorescence polarization, uHTS hits, confirmation (AID 602368). It counts as functional.
Chain of 26S proteasome non-ATPase regulatory subunit 14 (O00487 whole entry): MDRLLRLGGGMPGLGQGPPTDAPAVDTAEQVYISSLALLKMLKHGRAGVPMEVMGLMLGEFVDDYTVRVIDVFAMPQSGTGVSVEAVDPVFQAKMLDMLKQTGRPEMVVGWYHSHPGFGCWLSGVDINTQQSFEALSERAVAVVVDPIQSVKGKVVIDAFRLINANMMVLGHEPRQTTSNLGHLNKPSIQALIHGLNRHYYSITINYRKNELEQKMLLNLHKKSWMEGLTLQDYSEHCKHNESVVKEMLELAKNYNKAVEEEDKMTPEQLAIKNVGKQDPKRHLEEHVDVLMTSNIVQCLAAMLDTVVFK
The target of assay [14] is 72 kDa type IV collagenase (Homo sapiens, UniProt P08253). The assay is described as follows: Dose Response validation of uHTS RPN11 inhibitor hits using a MMP-2 Fluorescence assay. It is filed as functional.
Chain of 72 kDa type IV collagenase (P08253 whole entry): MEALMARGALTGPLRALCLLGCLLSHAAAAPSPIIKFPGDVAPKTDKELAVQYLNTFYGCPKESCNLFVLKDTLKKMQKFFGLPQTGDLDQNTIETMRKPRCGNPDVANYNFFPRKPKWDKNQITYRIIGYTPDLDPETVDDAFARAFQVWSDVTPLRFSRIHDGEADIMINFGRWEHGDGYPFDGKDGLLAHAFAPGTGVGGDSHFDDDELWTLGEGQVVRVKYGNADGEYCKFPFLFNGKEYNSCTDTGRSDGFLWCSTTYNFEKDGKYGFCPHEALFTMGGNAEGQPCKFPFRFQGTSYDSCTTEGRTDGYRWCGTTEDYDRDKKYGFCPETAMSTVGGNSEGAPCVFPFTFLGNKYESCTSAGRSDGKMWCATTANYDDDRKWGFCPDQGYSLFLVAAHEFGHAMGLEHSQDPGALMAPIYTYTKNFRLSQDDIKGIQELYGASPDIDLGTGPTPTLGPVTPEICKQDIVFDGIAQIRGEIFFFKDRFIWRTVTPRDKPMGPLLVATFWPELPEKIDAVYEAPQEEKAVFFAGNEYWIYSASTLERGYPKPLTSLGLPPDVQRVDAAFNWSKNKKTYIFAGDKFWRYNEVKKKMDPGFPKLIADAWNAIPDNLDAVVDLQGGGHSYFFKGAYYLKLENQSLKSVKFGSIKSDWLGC
Assay [15] concerns the target T5, RNA-binding protein pos-1 (Caenorhabditis elegans, UniProt G5EF15).
T5 sequence (G5EF15 whole entry): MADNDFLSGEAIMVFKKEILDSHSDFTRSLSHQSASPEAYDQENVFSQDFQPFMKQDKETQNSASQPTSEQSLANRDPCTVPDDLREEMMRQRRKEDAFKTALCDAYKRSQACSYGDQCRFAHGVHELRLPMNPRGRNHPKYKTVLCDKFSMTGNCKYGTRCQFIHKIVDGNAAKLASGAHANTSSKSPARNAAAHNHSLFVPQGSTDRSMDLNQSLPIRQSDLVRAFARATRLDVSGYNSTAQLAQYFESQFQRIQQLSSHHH
The assay is described as follows: inhibitors of POS-1/mex-3 RNA binding, dose response, biochemical, fluorescence polarization (AID 1964).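 Further: purified POS-1 fused to maltose binding protein made in E. coli; potency of compounds blocking POS-1 binding to fluorescent RNA.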

Assay [16] has as its target T6, Zinc finger protein mex-5 (Caenorhabditis elegans, UniProt Q9XUB2).
T6 sequence (Q9XUB2 whole entry): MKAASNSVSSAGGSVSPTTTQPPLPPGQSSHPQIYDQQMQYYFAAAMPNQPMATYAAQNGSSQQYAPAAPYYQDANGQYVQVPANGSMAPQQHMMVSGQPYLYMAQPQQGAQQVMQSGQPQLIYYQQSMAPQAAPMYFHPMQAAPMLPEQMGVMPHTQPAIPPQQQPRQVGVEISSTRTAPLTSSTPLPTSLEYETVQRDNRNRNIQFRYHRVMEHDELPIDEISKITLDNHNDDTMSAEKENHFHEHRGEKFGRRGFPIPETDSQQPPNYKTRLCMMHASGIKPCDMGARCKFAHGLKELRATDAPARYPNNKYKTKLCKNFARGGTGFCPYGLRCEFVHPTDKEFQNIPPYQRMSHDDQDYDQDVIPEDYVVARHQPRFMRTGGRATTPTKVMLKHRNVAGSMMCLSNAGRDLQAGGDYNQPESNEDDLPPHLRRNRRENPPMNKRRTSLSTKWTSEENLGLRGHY
Briefly: MEX-5/TCR-2 RNA interaction inhibitors, dose response, biochemical, C. elegans, fluorescence polarization (AID 1960).

For a further assay, the target named is Prothrombin (Bos taurus, UniProt P00735). The assay is described as follows: thrombin inhibition, dose response, biochemical, fluorescence polarization, uHTS hits (AID 602369). It counts as functional.
The target in the next assay is Melanocortin receptor 4 (Homo sapiens, UniProt P32245). It counts as functional, cell-based.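 Further: Cell-based assay with luminescence read-out, confirmatory dose-response testing for agonist activity of biased ligands at MC4R; human U2OS cells with tagged receptor and beta-arrestin; potency of agonists that increase receptor coupling to beta-arrestin.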
Chain of Melanocortin receptor 4 (P32245 whole entry): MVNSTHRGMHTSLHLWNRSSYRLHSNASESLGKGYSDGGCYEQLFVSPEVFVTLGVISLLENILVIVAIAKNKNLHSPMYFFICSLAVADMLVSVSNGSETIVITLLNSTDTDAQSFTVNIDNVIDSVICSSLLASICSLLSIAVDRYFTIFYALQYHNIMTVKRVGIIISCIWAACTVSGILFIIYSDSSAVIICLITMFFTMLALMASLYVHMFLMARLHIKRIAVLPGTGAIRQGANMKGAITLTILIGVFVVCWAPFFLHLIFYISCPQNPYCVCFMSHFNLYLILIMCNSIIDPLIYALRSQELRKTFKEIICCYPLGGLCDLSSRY

Chain of Induced myeloid leukemia cell differentiation protein Mcl-1 (Q07820 whole entry): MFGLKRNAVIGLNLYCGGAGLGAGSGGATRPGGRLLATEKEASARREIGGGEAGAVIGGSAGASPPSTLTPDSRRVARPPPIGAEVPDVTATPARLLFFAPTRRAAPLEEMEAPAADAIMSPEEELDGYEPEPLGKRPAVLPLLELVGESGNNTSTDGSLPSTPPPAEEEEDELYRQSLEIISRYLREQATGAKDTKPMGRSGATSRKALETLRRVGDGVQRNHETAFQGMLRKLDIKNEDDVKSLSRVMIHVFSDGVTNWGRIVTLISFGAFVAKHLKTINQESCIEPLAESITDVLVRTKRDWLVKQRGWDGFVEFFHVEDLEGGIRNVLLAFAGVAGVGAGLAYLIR
Chain of Cytochrome P450 2D6 (P10635 whole entry): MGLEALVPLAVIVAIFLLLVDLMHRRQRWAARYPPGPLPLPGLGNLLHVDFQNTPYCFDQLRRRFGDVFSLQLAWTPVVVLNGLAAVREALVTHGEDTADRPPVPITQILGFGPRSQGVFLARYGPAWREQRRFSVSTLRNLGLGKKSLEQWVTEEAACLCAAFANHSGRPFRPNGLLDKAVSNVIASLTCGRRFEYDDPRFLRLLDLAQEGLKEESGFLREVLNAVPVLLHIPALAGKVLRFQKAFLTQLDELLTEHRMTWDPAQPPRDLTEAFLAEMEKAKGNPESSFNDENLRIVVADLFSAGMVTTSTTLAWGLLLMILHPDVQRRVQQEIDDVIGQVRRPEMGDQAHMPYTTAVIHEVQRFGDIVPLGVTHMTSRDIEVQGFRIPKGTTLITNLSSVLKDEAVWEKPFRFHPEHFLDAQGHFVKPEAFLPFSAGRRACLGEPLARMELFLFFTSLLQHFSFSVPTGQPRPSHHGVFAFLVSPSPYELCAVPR
Chain of Cytochrome P450 3A4 (P08684 whole entry): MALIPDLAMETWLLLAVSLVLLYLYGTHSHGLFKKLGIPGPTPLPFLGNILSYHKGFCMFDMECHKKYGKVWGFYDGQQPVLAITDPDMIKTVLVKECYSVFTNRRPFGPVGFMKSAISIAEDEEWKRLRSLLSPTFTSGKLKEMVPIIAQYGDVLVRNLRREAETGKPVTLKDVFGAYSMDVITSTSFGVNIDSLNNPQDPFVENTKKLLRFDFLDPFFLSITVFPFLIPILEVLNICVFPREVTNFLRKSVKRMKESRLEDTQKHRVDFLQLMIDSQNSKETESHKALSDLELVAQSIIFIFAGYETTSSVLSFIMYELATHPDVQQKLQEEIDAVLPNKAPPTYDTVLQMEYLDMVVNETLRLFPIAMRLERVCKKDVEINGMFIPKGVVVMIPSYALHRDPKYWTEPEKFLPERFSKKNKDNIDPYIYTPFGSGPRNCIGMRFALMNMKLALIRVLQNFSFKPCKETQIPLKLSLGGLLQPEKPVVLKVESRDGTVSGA

In the case of `CC(/C=C1\SC(=S)N(c2ccc(C(=O)O)cc2)C1=O)=C\c1ccccc1`, the EC50 with HEK293 [1] was 8.26 µM (active). Also, the IC50 in the assay with HEK293 [2] is 4.09 µM (active); on Cysteine protease ATG4B, 5.25 µM (active); at Genome polyprotein, 33.7 µM (active); with HEK293 [3], > 20 µM (inactive); at Phospholipase A2, 1.88 µM (active); in [4] it was 3.09 µM (active). The IC50 with HEK293 [5] was 5.93 µM (active).
As for `O=C1CC(c2cccc(F)c2)SC(N(c2ccccc2)c2ccccc2)=N1` (stereo unspecified), the values for the IC50 in [6] and in [8] were 9.86 µM (active) and 16 µM (active), respectively. Besides, in [7], the EC50 is > 53 µM (inactive). The figures for the AC50 at Cytochrome P450 3A4, at Cytochrome P450 2D6 and on Cytochrome P450 1A2 were 17.8 µM (inconclusive), 25.1 µM (inconclusive) and 8.91 µM (inconclusive), respectively.
For `COc1ccc(C(C(=O)NC2CCCCC2)N(C(=O)c2sc(C)nc2C)c2ccc(OC)cc2)cc1` (stereo unspecified), on Cytochrome P450 2C9, the AC50 is 17.8 µM (inconclusive). Moreover, the IC50 in assay [6] is 8.51 µM (active); in assay [8], > 20 µM (inactive). For the same molecule, in assay [7], the EC50 is > 53 µM (inactive).
As for `CCCCOc1ccccc1C1C(C(=O)OC)=CN(CC)C=C1C(=O)OC`, the figures for the EC50 in assay [9], in [7] and in assay [10] were > 112 µM (not active), > 53 µM (inactive) and > 112 µM (not active), respectively. Moreover, the IC50 in assay [6] is 3.74 µM (active); in assay [8] it was 16 µM (active).
Regarding `COc1ccc(Br)cc1CNC(=O)CN1C(=O)C(c2ccccc2)Oc2cccnc21` (stereo unspecified), the results for the IC50 in assay [11] and in assay [12] were 31.6 µM (active) and 14.3 µM (active), respectively.
With `COc1ccccc1N1C(=O)S/C(=C\c2ccc(C)s2)C1=O`, the IC50 in assay [13] is 23.5 µM (active); in assay [14], > 100 µM (inactive); on Prothrombin, 36.3 µM (active). The EC50 in assay [15] is > 300 µM (not active); in assay [16], 10.1 µM (inconclusive).
On to `O=C(CCN1C(=O)NC2(CCCC2)C1=O)Nc1ccc(-c2nc3ccccc3s2)cc1`, for which the IC50 is 19.3 µM (active) in assay [13], > 100 µM (inactive) in [14] and 19.5 µM (active) at Prothrombin.
As for `CCOc1ccc(NC(=O)CSc2nc(-c3cccs3)cc(C(F)(F)F)n2)c([N+](=O)[O-])c1`, the EC50 at Melanocortin receptor 4 is > 89.2 µM (inactive).
For `O=C(CC1N=C2c3ccccc3N=C(SCc3ccc(Cl)cc3)N2C1=O)NCc1ccco1` (stereo unspecified), the IC50 is 23.6 µM (active) in assay [11] and 7.43 µM (active) in [12].
On to `Cc1cc(C)c(CN2CCN(CCCn3cnc(C(=O)Nc4ccc(C)c(C)c4)n3)CC2)c(C)c1`, for which the EC50 at Melanocortin receptor 4 was > 89.2 µM (inactive).
The same measure, in the same setting: next, `O=C(NC(c1ccc(Cl)cc1)c1cccnc1)C1CCN(CCOc2ccc(Cl)cc2Cl)CC1` (stereo unspecified): > 89.2 µM (inactive).
Consider `Cc1ccc(OC(=O)N(C)C[C@@H]2OCc3cnnn3CCCC(=O)N([C@@H](C)CO)C[C@@H]2C)cc1`, for which the IC50 in assay [6] is < 0.368 µM (active); in assay [8], > 20 µM (inactive). The EC50 in assay [7] was > 53 µM (inactive).
